According to patent publication US7276233B2, “Methods of treating neoplasia with combinations of target cell-specific adenovirus and chemotherapy” (priority 2001, dated 2007):
Like-named read-outs stand apart in the source and are kept apart here.

Columns and labels:
[1] = test system: LNCaP (prostate carcinoma) cells; test: cells; type: cell-based, human; conditions: for cell survival: LNCaP, CV787 MOI 0.01
Procedure: In preliminary experiments, we examined the chemosensitivity to different agents, as well as the oncolytic effect of CV787 in the prostate carcinoma LNCaP cells. Cells were plated in 96-well plates at a density of 20,000 cells per well. […] […] Cells were incubated at 37° C. in 5% CO2 for an additional two days. Cell viability was measured using the MTT assay. Mosmann et al., (1983). Briefly, 50 μl of 1 mg/ml MTT vital dye (Sigma, St. Louis, Mo.) was added to each well and allowed to incubate for 3 h at 37° C. and 5% CO2. Then, plates were drained to remove untransformed MTT and blot. 100 μl of isopropanol was added to each well, the plate was incubated for 15 minutes and vigorously shaken (Microshaker II, Dynatech) in order to ensure solubilization of the blue formazan. The optical density of each well was quantitated using an automatic plate reader (Molecular Devices, Sunnyvale, Calif.) with a 560 nm test wavelength and 690 nm reference wavelength. Cell viability was defined as the ratio of the mean absorbance of 9 treatment wells minus the blank to the mean absorbance of 6 untreated matched controls minus the blank. […] Each experiment was performed at least twice.
To study potential synergy or enhancement in treatment when administering CV787 and chemotherapy in vitro, the effectiveness of the combined treatment at several concentrations of paclitaxel, ranging from 0-62.5 nM, […], with CV787 at various MOIs, ranging from 0-10 MOI, was evaluated in the prostate carcinoma LNCaP cells. Cells were treated with CV787 and paclitaxel or docetaxel and the cell viability was determined at various time points after treatment by an MTT assay, as shown in FIGS. 2-4. […] To determine whether the timing of administration for the testing articles affected the combined oncolytic effect, LNCaP cells were treated with paclitaxel for 24 hours before or after infection with CV787.
The protocols described above were used to screen a number of different chemotherapeutic agents from various classes of chemotherapeutics. […]

[2] = test system: caspase-7, poly-ADP-ribose-polymerase, Fas/Fas-L, Bcl-2, Bcl-XL, Bax; test: Immunoblot of apoptosis related protein markers in treated LNCaP cells; type: cell-based, human; conditions: docetaxel 6.0 nM, CV787 MOI 0.5
Text: Enhanced chemiluminescence (ECL; Amersham Pharmacia) was used for detection. […] All antibodies were used according manufacturer's instruction.

[3] = test system: LNCaP prostate tumor xenografts; type: in vivo, athymic Balb/c nu/nu mice
Text: Six to eight week old athymic Balb/c nu/nu mice were obtained from Simonson Laboratories (Gilroy, Calif.) and acclimatized to laboratory conditions one week prior to tumor implantation. Xenografts were established by injecting 1×10^6 LNCaP cells, suspended in 100 μd of RPMI 1640 and 100 μd of matrigel, subcutaneously near the small of the back. When tumors reached between 400 mm^3 and 600 mm^3, mice were randomized into groups of four. The first group received 1×10^10 particles of CV787 at day 1 via the tail vein intravenously (i.v.). CV787 was diluted in 0.1 ml lyophilized buffer (5% sucrose, 1% glycine, 1 mM MgCl2, 0.05% Tween-80 in 10 mM Tris buffer) and injected into the tail vein using a 28-gauge needle. The second group was given taxane only. Paclitaxel was intraperitoneally administered at a dose of 20 mg/kg, daily for 4 days starting at day 2. Docetaxel was intravenously administered at a dose of 5 or 12.5 mg/kg at day 2, 5 and 8. The third group was given CV787 (i.v.) at day 1 and taxane at the same doses and schedule as the second group. As a control, a fourth group was treated with 0.1 ml of normal saline (i.e. control) i.v. at day 1 and then i.p. or i.v. for 4 days. The dose and route of administration of paclitaxel were selected according to studies in nude mice (Riondel, J. et al., 1986, Cancer Chemother Pharmacol. 17:137-42.) (Chahinian, A. P. et al., 1998, J. Surg. Onc. 67:104-111.). For docetaxel, the dose was selected based on the human clinical dose. (RPR Pharm. Inc., Collegeville, Pa.) and determined by a dose-range finding study in nude mice. Tumors were measured weekly in two dimensions by external caliper and volume was estimated by the formula [length (mm)×width (mm)^2]/2 (7). Animals were humanely killed when their tumor burden became excessive. Serum was harvested weekly by retro-orbital bleed. The difference in mean tumor volume between treatment groups was compared for statistical significance using the unpaired, two-tailed, t-test. Blood samples were collected at various time points for determining prostate-specific antigen. Federal and institutional guidelines for animal care were followed.
Six to eight week old athymic Balb/c nu/nu mice were obtained from Simonson Laboratories (Gilroy, Calif.) and acclimatized to laboratory conditions one week prior to tumor implantation. Xenografts were established by injecting 1×10^6 LNCaP cells subcutaneously near the small of the back suspended in 100 μl of RPMI 1640 and 100 μl of maltrigel (Collaborative Biochemical Products). When tumors reached between 400 mm^3 and 600 mm^3, mice were randomized in groups of four each to receive either 1×10^10 particles of CV787 at day 1 via the tail vein or paclitaxel, 20 mg/kg intraperitoneally (i.p.) daily for 4 days starting at day 2, versus controls treated with normal saline 0.1 ml i.v. at day 1 and then i.p. for 4 days. In addition, another group of mice received the combination of CV787 and paclitaxel at the same doses and schedule as above. CV787 was diluted in lyophilized buffer and injected into tail vein in a volume of 0.1 ml using a 28-gauge needle. The dose and route of administration of paclitaxel were selected according to studies in nude mice by Riondel et al., (1986) Cancer Chemother Pharmacol. 17:137. These authors conducted acute toxicity studies of paclitaxel in nude mice and selected the unit dose of 12.5 mg/kg daily, being 1/20th of the LD50 dose (lethal dose for 50% of animals). Tumors were measured weekly in two dimensions by external caliper and volume was estimated by the formula [length (mm)×width (mm)^2]/2. Animals were humanely killed when their tumor burden became excessive. Serum was harvested weekly by retro-orbital bleed. The difference in mean tumor volume between treatment groups was compared for statistical significance using the unpaired, two-tailed, t-test. Blood samples were collected at various time points for determining prostate-specific antigen (PSA). […]

[4] = type: in vivo, Balb/C mice; conditions: docetaxel alone
Text: Finally, and of clinical significance are two other results. […] Indeed, animals treated with both CV787 and taxotere gain 24% more weight than untreated control animals (Table 2).

[5] = test system: LNCaP prostate tumor xenografts; type: in vivo, athymic Balb/c nu/nu mice; conditions: for change in tumor growth (FIG. 24): alone or with CV787 1×10^10 particles, 5 week period
[6] = test system: LNCaP prostate tumor xenografts; test: LNCaP xenograft antitumor efficacy, intratumorally administered CV787 with paclitaxel; type: in vivo, athymic Balb/c nu/nu mice; conditions: 6 weeks after treatment
Procedure: Six to eight week old athymic Balb/c nu/nu mice were obtained from Simonson Laboratories (Gilroy, Calif.) and acclimatized to laboratory conditions one week prior to tumor implantation. Xenografts were established by injecting 1×10^6 LNCaP cells subcutaneously near the small of the back suspended in 100 μl of RPMI 1640 and 100 μl of maltrigel (Collaborative Biochemical Products). When tumors reached between 400 mm^3 and 600 mm^3, mice were randomized in groups of four each to receive either 1×10^10 particles of CV787 at day 1 via the tail vein or paclitaxel, 20 mg/kg intraperitoneally (i.p.) daily for 4 days starting at day 2, versus controls treated with normal saline 0.1 ml i.v. at day 1 and then i.p. for 4 days. […] Tumors were measured weekly in two dimensions by external caliper and volume was estimated by the formula [length (mm)×width (mm)^2]/2. […]
The in vivo antitumor efficacy of intratumorally administered CV787 and the interaction of CV787 in the combination with paclitaxel was assessed in the LNCaP mouse xenograft model as described above. […]
All treatment groups received identical injections of the active agent or vehicle control into both the tumor and peritoneum. Tumor volume was measured just before the injection of test articles and once a week for 6 weeks thereafter.

[7] = CV787 1×10^10 particles i.v. single dose, paclitaxel 20 mg/kg 4 doses

Question: Which IC50 ([1]; Homo sapiens, 120 h, LNCaP cells, day 5, dose-response curve analysis) does the source give for `CC(=O)O[C@@]12CO[C@@H]1C[C@H](O)[C@@]1(C)C(=O)[C@H](O)C3=C(C)[C@@H](OC(=O)[C@H](O)[C@@H](NC(=O)OC(C)(C)C)c4ccccc4)C[C@@](O)([C@@H](OC(=O)c4ccccc4)[C@H]21)C3(C)C` [docetaxel] here?
Answer: The IC50 was 8.14 nM.

Question: And the cell survival ([1]; day 7 post treatment, % of the control, docetaxel 3.12 nM 24 hour before virus)?
Answer: Its cell survival is 95%.

Question: What about the “change of Bcl-2 expression” value [2] of the same molecule?
Answer: Its value is “did not observe a significant change”.

Question: And the “effect of single agent on tumor growth” value ([3]; CV787 1×10^10 particles i.v., docetaxel 5.0 mg/kg i.v.)?
Answer: The value was “stabilization of tumor growth”.

Question: And the “minimum tumor volume, % of the original tumor volume” value ([3]; docetaxel 5 mg/kg alone, reached by week 1)?
Answer: Its value is “approximately 50%”.

Question: And the “course of tumor volume (FIG. 29)” value ([3]; docetaxel 5 mg/kg, CV787 1×10^10 particles (CV787 alone also 1×10^11 particles), 6 weeks)?
Answer: Its value is “by week 6 has reached the starting tumor volume”.

Question: And the body weight [4]?
Answer: Its body weight is “transient weight loss”.

Question: And the “relative tumor volume, % of baseline” value ([5]; four weeks after treatment, CV787 1×10^10 particles i.v. day 1, docetaxel 10 mg/kg i.v.)?
Answer: The value was 49 % of baseline.

Question: What does the source list for `CC(=O)O[C@H]1C(=O)[C@@]2(C)[C@H]([C@H](OC(=O)c3ccccc3)[C@]3(O)C[C@H](OC(=O)[C@H](O)[C@@H](NC(=O)c4ccccc4)c4ccccc4)C(C)=C1C3(C)C)[C@]1(OC(C)=O)CO[C@@H]1C[C@@H]2O` [paclitaxel]?
Answer: cell survival ([1]; 6 days after virus infection, paclitaxel 6.25 nM): 100%; time after treatment at which the regression was produced [3, 7]: 2 weeks; tumor regression produced [3, 7]: partial tumor regression; tumor growth inhibition compared with the control group ([3]; day 21, CV787 1×10^10 particles, paclitaxel 20 mg/kg): 70%; relative tumor volume, % of baseline ([3]; four weeks after treatment, CV787 1×10^10 particles i.v. day 1, paclitaxel 20 mg/kg i.p. daily for 4 days): 31 % of baseline; relative tumor volume, % of baseline ([3]; ten weeks after treatment, CV787 1×10^10 particles i.v., paclitaxel 20 mg/kg): 149 % of baseline; average tumor volume ([6]; CV787 1×10^7 particles/mm^3 intratumoral day 1, paclitaxel 15 mg/kg daily for four days): 630 mm^3; average tumor volume, % of baseline ([6]; CV787 1×10^7 particles/mm^3 intratumoral, paclitaxel 15 mg/kg): 166 % of baseline; change in tumor growth (FIG. 24) ([5]; paclitaxel 2 mg/kg): progressive enlargement of the tumor; change in tumor growth (FIG. 24) ([5]; paclitaxel 10 mg/kg): merely arrests tumor growth
